Source: patent US20090029983A1, “NOVEL HETEROCYCLIC COMPOUNDS HAVING ANTI-HBV ACTIVITY” (priority 2005, published 2009)

System: HBV
Assay: HBV screening assay (viral DNA in baculovirus-HBV transduced HepG2 cells)
Type: cell-based
Settings: Hepatitis B virus, HepG2, 72 h, read-out: EC50 (antiviral activity), HBV-transduced HepG2 cells, three days with compound, viral DNA by ELISA
Method: HepG2 cells were transduced using a baculovirus to deliver the HBV genome essentially as previously described (Delaney et al. in Hepatology 1998; 28: 1134-1146). Transduced cells were cultured in supplemented EMEM media with 10% fetal bovine serum in a 5% CO2 incubator at 37° C. for three days in the presence of test compounds. The cells were lysed in a buffer containing 0.5% NP-40 and […] proteinase K. A solid-phase hybridization was performed to capture the viral DNA and to label the target DNA with Digoxigenin-labeled DNA probes. The viral DNA was detected by ELISA, using horseradish peroxidase-conjugated anti-digoxigenin antibodies.
The EC50 values were determined using ExcelFit software from the inhibition values of a titration curve for each compound. For CC50 determinations, the same titration of compounds was co-cultured with non-transduced HepG2 for three days under the conditions described above. The Promega CellTiter 96 Aqueous One Solution Cell Proliferation Assay was used to measure cell proliferation/viability. The CC50 values were determined using ExcelFit software from the inhibition values of the titration curve for each compound.

Compound	EC50 [µM]
NC(=O)c1sc2nc3c(c(-c4cccs4)c2c1N)CCCC3Cc1ccccc1 (centres unmarked) [Compound 64, 3-Amino-8-benzyl-4-thiophen-2-yl-5,6,7,8-tetrahydro-thieno[2,3-b]uinoline-2-carboxylic acid amide]	> 10
CCCC1CCCc2c1nc1sc(C(N)=O)c(N)c1c2-c1cccs1 (centres unmarked) [Compound 65, 3-Amino-8-propyl-4-thiophen-2-yl-5,6,7,8-tetrahydro-thieno[2,3-b]quinoline-2-carboxylic acid amide]	1 to 10
NC(=O)c1sc2nc3c(c(-c4cccs4)c2c1N)CCCC3c1ccccc1 (centres unmarked) [Compound 66, 3-Amino-8-phenyl-4-thiophen-2-yl-5,6,7,8-tetrahydro-thieno[2,3-b]quinoline-2-carboxylic acid amide]	1 to 10
COc1cccc(C2CCCc3c2nc2sc(C(N)=O)c(N)c2c3-c2cccs2)c1 (centres unmarked) [Compound 67, 3-Amino-8-(3-methoxy-phenyl)-4-thiophen-2-yl-5,6,7,8-tetrahydro-thieno[2,3-b]quinoline-2-carboxylic acid amide]	> 10
NC(=O)c1sc2nc3c(c(-c4cccs4)c2c1N)CCCC3C1CCCCC1 (centres unmarked) [Compound 68, 3-Amino-8-cyclohexyl-4-thiophen-2-yl-5,6,7,8-tetrahydro-thieno[2,3-b]quinoline-2-carboxylic acid amide]	> 10
COC1CCCc2c1nc1sc(C(N)=O)c(N)c1c2-c1cccs1 (centres unmarked) [Compound 69, 3-Amino-8-methoxy-4-thiophen-2-yl-5,6,7,8-tetrahydro-thieno[2,3-b]quinoline-2-carboxylic acid amide]	< 1
C=CCC1CCCc2c1nc1sc(C(N)=O)c(N)c1c2-c1cccs1 (centres unmarked) [Compound 70, 8-Allyl-3-amino-4-thiophen-2-yl-5,6,7,8-tetrahydro-thieno[2,3-b]quinoline-2-carboxylic acid amide]	1 to 10
CCOC(=O)CC1CCCc2c1nc1sc(C(N)=O)c(N)c1c2-c1cccs1 (centres unmarked) [Compound 71, 3-Amino-8-carbethoxymethyl-4-thiophen-2-yl-5,6,7,8-tetrahydro-thieno[2,3-b]quinoline-2-carboxylic acid amide]	> 10
CC1CCc2nc3sc(C(N)=O)c(N)c3c(-c3cccs3)c2C1 (centres unmarked) [Compound 72, 3-Amino-6-methyl-4-thiophen-2-yl-5,6,7,8-tetrahydro-thieno[2,3-b]quinoline-2-carboxylic acid amide]	> 10
CCC1CCc2nc3sc(C(N)=O)c(N)c3c(-c3cccs3)c2C1 (centres unmarked) [Compound 73, 3-Amino-6-ethyl-4-thiophen-2-yl-5,6,7,8-tetrahydro-thieno[2,3-b]quinoline-2-carboxylic acid amide]	> 10
CC1CCc2c(nc3sc(C(N)=O)c(N)c3c2-c2cccs2)C1 (centres unmarked) [Compound 74, 3-Amino-7-methyl-4-thiophen-2-yl-5,6,7,8-tetrahydro-thieno[2,3-b]quinoline-2-carboxylic acid amide]	> 10
Cc1ccsc1-c1c2c(nc3sc(C(N)=O)c(N)c13)CCCC2=O [Compound 75, 3-Amino-4-(3-methyl-thiophen-2-yl)-5-oxo-5,6,7,8-tetrahydro-thieno[2,3-b]quinoline-2-carboxylic acid amide]	< 1
NC(=O)c1sc2nc3c(c(-c4cccs4)c2c1N)C(=O)CCC3 [Compound 76, 3-Amino-4-(thiophen-2-yl)-5-oxo-5,6,7,8-tetrahydro-thieno[2,3-b]quinoline-2-carboxylic acid amide]	1 to 10
NC(=O)c1sc2nc3c(c(-c4ccc(Cl)cc4)c2c1N)C(=O)CCC3 [Compound 77, 3-Amino-4-(4-chloro-phenyl)-5-oxo-5,6,7,8-tetrahydro-thieno[2,3-b]quinoline-2-carboxylic acid amide]	> 10
NC(=O)c1sc2nc3c(c(-c4cccs4)c2c1N)CN(C(=S)Nc1ccccc1)C3 [Compound 79, 3-Amino-6-phenylthiocarbamoyl-4-thiophen-2-yl-6,7-dihydro-5H-1-thia-6,8-diaza-s-indacene-2-carboxylic acid amide]	> 10
NC(=O)c1sc2nc3c(c(-c4cccs4)c2c1N)CN(C(=S)NCC1CCCO1)C3 (centres unmarked) [Compound 80, 3-Amino-6-[(tetrahydro-furan-2-ylmethyl)-thiocarbamoyl]-4-thiophen-2-yl-6,7-dihydro-5H-1-thia-6,8-diaza-s-indacene-2-carboxylic acid amide]	> 10

Compound	EC50 [µM]
NC(=O)c1sc2nc3c(c(-c4cccs4)c2c1N)CN(C(=S)NC1CCCC1)C3 [Compound 81, 3-Amino-6-cyclopentylthiocarbamoyl-4-thiophen-2-yl-6,7-dihydro-5H-1-thia-6,8-diaza-s-indacene-2-carboxylic acid amide]	1 to 10
CCCCNC(=S)N1Cc2nc3sc(C(N)=O)c(N)c3c(-c3cccs3)c2C1 [Compound 82, 3-Amino-6-butylthiocarbamoyl-4-thiophen-2-yl-6,7-dihydro-5H-1-thia-6,8-diaza-s-indacene-2-carboxylic acid amide]	1 to 10
Cc1ccc(NC(=S)N2Cc3nc4sc(C(N)=O)c(N)c4c(-c4cccs4)c3C2)cc1 [Compound 83, 3-Amino-4-thiophen-2-yl-6-p-tolylthiocarbamoyl-6,7-dihydro-5H-1-thia-6,8-diaza-s-indacene-2-carboxylic acidamide]	> 10
COc1cccc(NC(=S)N2Cc3nc4sc(C(N)=O)c(N)c4c(-c4cccs4)c3C2)c1 [Compound 85, 3-Amino-6-(3-methoxy-phenylthiocarbamoyl)-4-thiophen-2-yl-6,7-dihydro-5H-1-thia-6,8-diaza-s-indacene-2-carboxylic acid amide]	> 10
NC(=O)c1sc2nc3c(c(-c4cccs4)c2c1N)CN(C(=S)NCCCc1ccccc1)C3 [Compound 86, 3-Amino-6-(3-phenyl-propylthiocarbamoyl)-4-thiophen-2-yl-6,7-dihydro-5H-1-thia-6,8-diaza-s-indacene-2-carboxylic acid amide]	1 to 10
NC(=O)c1sc2nc3c(c(-c4cccs4)c2c1N)CN(C(=S)Nc1cccc(C(F)(F)F)c1)C3 [Compound 87, 3-Amino-4-thiophen-2-yl-6-(3-trifluoromethyl-phenylthiocarbamoyl)-6,7-dihydro-5H-1-thia-6,8-diaza-s-indacene-2-carboxylic acid amide]	> 10
NC(=O)c1sc2nc3c(c(-c4cccs4)c2c1N)CN(C(=S)Nc1ccc(F)cc1)C3 [Compound 88, 3-Amino-6-(4-fluoro-phenylthiocarbamoyl)-4-thiophen-2-yl-6,7-dihydro-5H-1-thia-6,8-diaza-s-indacene-2-carboxylic acid amide]	> 10
NC(=O)c1sc2nc3c(c(-c4cccs4)c2c1N)CN(C(=S)Nc1cc(Cl)cc(Cl)c1)C3 [Compound 89, 3-Amino-6-(3,5-dichloro-phenylthiocarbamoyl)-4-thiophen-2-yl-6,7-dihydro-5H-1-thia-6,8-diaza-s-indacene-2-carboxylic acid amide]	> 10
COC(=O)c1ccc(NC(=S)N2Cc3nc4sc(C(N)=O)c(N)c4c(-c4cccs4)c3C2)cc1 [Compound 90, 4-[(3-Amino-2-carbaomyl-4-thiophen-2-yl-5,7-dihydro-1-thia-6,8-diaza-s-indacene-6-carbothioyl)-amino]benzoic acid methylester]	> 10
NC(=O)c1sc2nc3c(c(-c4cccs4)c2c1N)CN(C(=S)NC1CC1)C3 [Compound 91, 3-Amino-6-cyclopropylthiocarbamoyl-4-thiophen-2-yl-6,7-dihydro-5H-1-thia-6,8-diaza-s-indacene-2-carboxylic acid amide]	1 to 10
Cc1cc(C)cc(NC(=S)N2Cc3nc4sc(C(N)=O)c(N)c4c(-c4cccs4)c3C2)c1 [Compound 92, 3-Amino-6-(3,5-dimethyl-phenylthiopcarbamoyl)-4-thiophen-2-yl-6,7-dihydro-5H-1-thia-6,8-diaza-s-indacene-2-carboxylic acid amide]	> 10
NC(=O)c1sc2nc3c(c(-c4cccs4)c2c1N)CN(C(=S)NCCN1CCOCC1)C3 [Compound 93, 3-Amino-6-(2-morpholin-4-yl-ethylthiocarbamoyl)-4-thiophen-2-yl-6,7-dihydro-5H-1-thia-6,8-diaza-s-indacene-2-c arboxylic acid amide]	> 10
NC(=O)c1sc2nc3c(c(-c4cccs4)c2c1N)CN(C(=S)NCCCN1CCOCC1)C3 [Compound 94, 3-Amino-6-(3-morpholin-4-yl-propylthiocarbamoyl)-4-thiophen-2-yl-6,7-dihydro-5H-1-thia-6,8-diaza-s-indacene-2-carboxylic acid amide]	> 10
NC(=O)c1sc2nc3c(c(-c4cccs4)c2c1N)CN(C1=NCCS1)C3 [Compound 95, 3-Amino-6-(4,5-dihydro-thiazol-2-yl)-4-thiophen-2-yl-6,7-dihydro-5H-1-thia-6,8-diaza-s-indacene-2-carboxylic acid amide]	< 1
NC(=O)c1sc2nc3c(c(-c4cccs4)c2c1N)CN(C(=O)Nc1ccccc1)C3 [Compound 96, 3-Amino-4-thiophen-2-yl-5,7-dihydro-1-thia-6,8-diaza-s-indacene-2,6-dicarboxylicacid 2-amide 6-phenylamide]	> 10

Same assay, conditions: read-out: EC50 (antiviral activity); HBV-transduced HepG2 cells, three days with compound, viral DNA by ELISA

Compound	EC50 [µM]
NC(=O)c1sc2nc3c(c(-c4cccs4)c2c1N)CN(C(=S)NCc1ccccc1)C3 [Compound 84, 3-Amino-6-benzylthiocarbamoyl-4-thiophen-2-yl-6,7-dihydro-5H-1-thia-6,8-diaza-s-indacene-2-carboxylic acid amide]	1 to 10
